Earlier results as cited in patent US20240238196A1 (Shilpa Medicare Limited, priority 2021, published 2024).

- Solubility in organic solvents (organic solvents, slightly soluble, according to CHMP assessment report for Xarelto): 1000 to 10000 µg/mL
- Solubility in water (in words) (water): practically insoluble
Structure (SMILES): O=C(NC[C@H]1CN(c2ccc(N3CCOCC3=O)cc2)C(=O)O1)c1ccc(Cl)s1 [Rivaroxaban, 5-Chloro-N-({(5S)-2-oxo-3-[4-(3-oxo-4-morpholinyl)phenyl]-1,3-oxazolidin5-yl}methyl)-2-thiophenecarboxamide]
